How the values were obtained:
[1] = test system: IMR32 (reduced PSMD5) and Kelly neuroblastoma cells; assay: Viability of IMR32 versus Kelly neuroblastoma cells (CellTiter-Glo); assay type: cell-based, human; settings: other experiments, e.g., 0.1 uM
T47D cells = assay: Combination of ABT-263 or ABT-199 with proteasome inhibitors, T47D cells with reduced PSMD2; assay type: cell-based, human; settings: T47D cells with reduced PSMD2, 72 hours
Excerpt: FIG. 18: Plots showing effect of various concentrations of ABT-263 (upper panels) or ABT-199 (lower panels) in combination with various concentrations of ixazomib un viability of T47D cells with reduced expression of PSMD2 (KB) (right panels) or control cells (left panels). Fold viability refers to the number of viable cells of the indicated type (PSMD2 KD or control cells) after culture in the presence of the test compounds (ixazomib +ABT-263 or ixazomib +ABT-199) divided by the number of viable cells of that type after culture in the absence of the test compounds. The concentrations of ABT-263 or ABT-199 tested are shown in the legend on the right side of each panel. If no concentration is listed, the compound was absent. Fold viability of control cells cultured in the presence of ixazomib alone (i.e., in the absence ABT-263 or ABT-199) is also shown in the panels showing effect of ixazomib +ABT-263 or ixazomib +ABT-199 on PSMD2 KD cells. […]
FIGS. 21A-21C: (FIG. 21A) Plot showing synergy of ABT-263 with ixazomib in T47D cells with reduced expression of PSMD2. […] The y-axis on each plot is the calculated EC50 in micromoles for either ixazomib or bortezomib in the presence of sublethal doses of ABT-263 or A.BT-199 as indicated. Compounds were added to the cells at the same time and cell viability was measured 72 hours later.

FDX1 [2] = biological target: T1, FDX1 (Homo sapiens, UniProt P10109); assay: Electron transfer from reduced FDX1 to the cysteine desulfurase complex; assay type: biochemical; settings: upon addition of cysteine
T1 construct: made in house
T1 sequence (P10109 62-184): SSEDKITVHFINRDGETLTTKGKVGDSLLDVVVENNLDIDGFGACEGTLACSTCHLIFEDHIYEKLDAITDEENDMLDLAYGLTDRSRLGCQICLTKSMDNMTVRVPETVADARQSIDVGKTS

FDX1 [3] = biological target: T1, FDX1; assay: Electron transfer assay, reduced FDX1 to SDA complex; assay type: biochemical; settings: upon addition of cysteine
Excerpt: (§1) Fe—S clusters are generated from sulfur extracted from cysteine by the iron sulfur-cluster (ISC) core complex (NFS1-ISD11-Acp-ISCU)2 and iron. A reductant (FDX1 or FDX2) is required for Fc-S cluster biosynthesis (Lill and Muhlenhoff, 2006; Py and Barras, 2010) (FIG. 53A). To investigate the effect of elesclomol on mitochondrial Fe—S cluster biosynthesis, we utilized in vitro Fe—S cluster assembly assays. […] As further confirmation, we examined the effect of elesclomol on electron transfer from reduced FDX1 to the ISC core complex upon the addition of cysteine.
Electron transfer assay—Electron transfer from re-FDX1 SDA complex was monitored as follows. 25 μM reduced FDX1 was mixed with 25 μM SDA, and 125 μM L-cysteine was added to initiate the reaction. To test the effect of the drug, samples contained 25-500 μM elesclomol (1-20× relative to FDX1). Samples were then transferred to 1 cm path-length quartz cuvettes, sealed with rubber septa, and UV/vis spectra were collected at 25° C. The growth of absorbance at 456 nm was used to monitor the oxidation of reduced FDX1 as a result of electron transfer to SDA.

[4] = biological target: T2, cysteine desulfurase (NFS1-ISD11-Acp)2 (SDA) (Homo sapiens, UniProt Q9Y697); assay: Cysteine desulfurase assay (DTT as the reductant); assay type: biochemical
T2 construct: made in house
Excerpt: as §1
Cysteine desulfurase assay—The protein samples used in the nisteine desulfurase assay and Fe—S cluster assembly experiments were prepared in an anaerobic chamber (Coy Laboratory) with samples buffer-exchanged extensively prior to the experiments with anaerobic buffer containing 20 mM HEPES at pH 7.6 and 150 mM NaCl (HN buffer). The reaction volumes in all the experiments were kept to […]. […]
The cysteine desulfurase assay reactions (300 μL in HN buffer) contained 10 μM SDA. […] The quenched reaction was incubated for 15 min at room temperature, and then the absorbance at 670 nm was measured and used to estimate the amount of sulfide by comparison to a standard curve obtained from known concentrations of Na2S.

T2 sequence (Q9Y697 56-457): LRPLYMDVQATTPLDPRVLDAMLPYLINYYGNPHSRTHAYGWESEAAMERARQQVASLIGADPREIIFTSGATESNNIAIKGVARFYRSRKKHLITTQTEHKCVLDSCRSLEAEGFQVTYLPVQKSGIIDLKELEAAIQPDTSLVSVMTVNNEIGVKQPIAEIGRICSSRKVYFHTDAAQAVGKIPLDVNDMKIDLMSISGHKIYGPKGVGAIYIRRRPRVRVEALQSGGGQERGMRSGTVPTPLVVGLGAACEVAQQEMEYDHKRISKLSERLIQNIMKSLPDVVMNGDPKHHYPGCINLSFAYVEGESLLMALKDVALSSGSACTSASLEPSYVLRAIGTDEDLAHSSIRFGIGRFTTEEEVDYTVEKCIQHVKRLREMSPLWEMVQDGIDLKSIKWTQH
T2 sequence (P0A6A8 2-78, further chain): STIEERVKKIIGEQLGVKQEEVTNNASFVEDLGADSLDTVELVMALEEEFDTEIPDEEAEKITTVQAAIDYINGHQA
T2 sequence (Q9HD34 whole entry, further chain): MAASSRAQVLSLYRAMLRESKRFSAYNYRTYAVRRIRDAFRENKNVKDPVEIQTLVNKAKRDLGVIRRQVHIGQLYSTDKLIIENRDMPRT

Compound: CC1(C)CCC(c2ccc(Cl)cc2)=C(CN2CCN(c3ccc(C(=O)NS(=O)(=O)c4ccc(N[C@H](CCN5CCOCC5)CSc5ccccc5)c(S(=O)(=O)C(F)(F)F)c4)cc3)CC2)C1 [ABT-263, navitoclax]
- toxicity at lower concentrations than 1 uM [1]: a similar level of toxicity was observed
- combination effect with bortezomib (T47D cells): synergy
- combination effect with ixazomib (T47D cells): synergy

Compound: CN(NC(=O)CC(=O)NN(C)C(=S)c1ccccc1)C(=S)c1ccccc1 [elesclomol]
- electron transfer from reduced FDX1 to the cysteine desulfurase complex (FDX1 [2]): inhibits electron transfer
- inhibition of electron transfer from reduced FDX1 to the NFS1 component of the ISC core complex (FDX1 [3]): progressive inhibition of electron transfer
- effect on cysteine desulfurase activity [4]: no inhibitory effect

From patent US20180353445A1, “METHODS AND COMPOSITIONS RELATING TO PROTEASOME INHIBITOR RESISTANCE” (Whitehead Institute for Biomedical Research, priority 2017, published 2018)
